Results as given in the supplement of paper PMC10307832.

Columns and labels:
Experiment in all cases: relative viability (nuclei count vs DMSO), 5 days (fraction); higher = more cells survive
NCI-H1650 = details: first compound 0.2 µM
Summary of the method: (§1)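 Dosing by pin tool came one day after lung cancer cell lines were seeded in 1536-well plates, using either one drug or a fixed anchor-drug dose plus five library-drug doses (not always all listed) in √10 steps. After 5 days, nuclei were counted on 4× images. Relative viability is treated-well nuclei count divided by vehicle-well nuclei count, and values are medians of duplicate plates.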

NCI-H1666 = system: NCI-H1666
Summary of the method: as §1

NCI-H1793 = system: NCI-H1793
Summary of the method: as §1

NCI-H1944 = system: NCI-H1944
Summary of the method: as §1

NCI-H2085 = system: NCI-H2085
Summary of the method: as §1

NCI-H2087 = system: NCI-H2087
Summary of the method: as §1

NCI-H2126 = system: NCI-H2126
Summary of the method: as §1

NCI-H3122 = system: NCI-H3122
Summary of the method: as §1

NCI-H441 = system: NCI-H441
Summary of the method: as §1

NCI-H596 = system: NCI-H596
Summary of the method: as §1

NCI-H661 = system: NCI-H661
Summary of the method: as §1

PC-14 = system: PC-14
Summary of the method: as §1

## CCNC(=O)c1noc(-c2cc(C(C)C)c(O)cc2O)c1-c1ccc(CN2CCOCC2)cc1 [Luminespib] + N=C(N)NC(=N)NCCc1ccccc1 [Phenformin] (partner 250 µM)
NCI-H1650
  relative viability: 0.159
NCI-H1666; first compound 0.002 µM
  relative viability: 0.583
NCI-H1666; first compound 0.006325 µM
  relative viability: 0.533
NCI-H1666; first compound 0.02 µM
  relative viability: 0.574
NCI-H1666; first compound 0.06325 µM
  relative viability: 0.532
NCI-H1666; first compound 0.2 µM
  relative viability: 0.538
NCI-H1793; first compound 0.002 µM
  relative viability: 0.367
NCI-H1793; first compound 0.006325 µM
  relative viability: 0.373
NCI-H1793; first compound 0.02 µM
  relative viability: 0.151
NCI-H1793; first compound 0.06325 µM
  relative viability: 0.102
NCI-H1793; first compound 0.2 µM
  relative viability: 0.138
NCI-H1944; first compound 0.002 µM
  relative viability: 0.219
NCI-H1944; first compound 0.006325 µM
  relative viability: 0.189
NCI-H1944; first compound 0.02 µM
  relative viability: 0.205
NCI-H1944; first compound 0.06325 µM
  relative viability: 0.112
NCI-H1944; first compound 0.2 µM
  relative viability: 0.111
NCI-H2085; first compound 0.002 µM
  relative viability: 0.807
NCI-H2085; first compound 0.006325 µM
  relative viability: 0.713
NCI-H2085; first compound 0.02 µM
  relative viability: 0.408
NCI-H2085; first compound 0.06325 µM
  relative viability: 0.221
NCI-H2085; first compound 0.2 µM
  relative viability: 0.225
NCI-H2087; first compound 0.002 µM
  relative viability: 0.493
NCI-H2087; first compound 0.006325 µM
  relative viability: 0.362
NCI-H2087; first compound 0.02 µM
  relative viability: 0.267
NCI-H2087; first compound 0.06325 µM
  relative viability: 0.136
NCI-H2087; first compound 0.2 µM
  relative viability: 0.115
NCI-H2126; first compound 0.002 µM
  relative viability: 0.523
NCI-H2126; first compound 0.006325 µM
  relative viability: 0.506
NCI-H2126; first compound 0.02 µM
  relative viability: 0.497
NCI-H2126; first compound 0.06325 µM
  relative viability: 0.279
NCI-H2126; first compound 0.2 µM
  relative viability: 0.307
NCI-H3122; first compound 0.002 µM
  relative viability: 0.427
NCI-H3122; first compound 0.006325 µM
  relative viability: 0.32
NCI-H3122; first compound 0.02 µM
  relative viability: 0.132
NCI-H3122; first compound 0.06325 µM
  relative viability: 0.0959
NCI-H3122; first compound 0.2 µM
  relative viability: 0.0895
NCI-H441; first compound 0.002 µM
  relative viability: 0.841
NCI-H441; first compound 0.006325 µM
  relative viability: 0.689
NCI-H441; first compound 0.02 µM
  relative viability: 0.732
NCI-H441; first compound 0.06325 µM
  relative viability: 0.216
NCI-H441; first compound 0.2 µM
  relative viability: 0.135
NCI-H596; first compound 0.002 µM
  relative viability: 0.648
NCI-H596; first compound 0.006325 µM
  relative viability: 0.621
NCI-H596; first compound 0.02 µM
  relative viability: 0.588
NCI-H596; first compound 0.06325 µM
  relative viability: 0.61
NCI-H596; first compound 0.2 µM
  relative viability: 0.58
NCI-H661; first compound 0.002 µM
  relative viability: 0.262
NCI-H661; first compound 0.006325 µM
  relative viability: 0.279
NCI-H661; first compound 0.02 µM
  relative viability: 0.27
NCI-H661; first compound 0.06325 µM
  relative viability: 0.241
NCI-H661; first compound 0.2 µM
  relative viability: 0.191
PC-14; first compound 0.002 µM
  relative viability: 0.618
PC-14; first compound 0.006325 µM
  relative viability: 0.393
PC-14; first compound 0.02 µM
  relative viability: 0.196
PC-14; first compound 0.06325 µM
  relative viability: 0.0634
PC-14; first compound 0.2 µM
  relative viability: 0.0788
